From ChEMBL document CHEMBL3588760, “Inhibitors of melanogenesis in B16 melanoma 4A5 cells from flower buds of Lawsonia inermis (Henna)” (Bioorg Med Chem Lett, 2015)

Tests used:
[1] = Cytotoxicity against mouse B16-4A5 cells assessed as cell viability at 3 uM after 70 hrs by WST-8 assay relative to control; format: cell-based; conditions: read-out: Activity
[2] = Cytotoxicity against mouse B16-4A5 cells assessed as cell viability at 1 uM after 70 hrs by WST-8 assay relative to control; format: cell-based; conditions: read-out: Activity
[3] = Inhibition of melanogenesis in theophylline-stimulated mouse B16-4A5 cells at 3 uM after 72 hrs by microplate reader analysis relative to control; format: functional; conditions: B16-4A5, 72 h
[4] = target: Plasminogen (Homo sapiens) (UniProt P00747); test: Inhibition of plasmin (unknown origin) at 100 uM after 18 hrs by arianor mahogany dye-based fibrin plate assay relative to control
Chain of Plasminogen (Homo sapiens) (P00747 97-580 limits assumed): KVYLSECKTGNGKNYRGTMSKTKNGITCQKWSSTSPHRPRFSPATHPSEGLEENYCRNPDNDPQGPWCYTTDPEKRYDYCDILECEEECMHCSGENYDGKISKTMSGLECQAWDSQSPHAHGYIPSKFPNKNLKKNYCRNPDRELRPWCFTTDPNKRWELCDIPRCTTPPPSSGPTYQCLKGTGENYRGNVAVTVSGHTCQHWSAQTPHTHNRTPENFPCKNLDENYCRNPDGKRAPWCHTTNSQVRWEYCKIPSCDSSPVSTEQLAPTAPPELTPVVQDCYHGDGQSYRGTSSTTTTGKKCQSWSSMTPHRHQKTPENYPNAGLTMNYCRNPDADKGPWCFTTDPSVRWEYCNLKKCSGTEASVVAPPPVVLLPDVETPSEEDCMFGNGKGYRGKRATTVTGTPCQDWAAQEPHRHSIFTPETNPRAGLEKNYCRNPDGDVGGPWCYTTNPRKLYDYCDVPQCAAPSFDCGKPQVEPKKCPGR
Chain of Plasminogen (Homo sapiens) (P00747 581-810 limits assumed): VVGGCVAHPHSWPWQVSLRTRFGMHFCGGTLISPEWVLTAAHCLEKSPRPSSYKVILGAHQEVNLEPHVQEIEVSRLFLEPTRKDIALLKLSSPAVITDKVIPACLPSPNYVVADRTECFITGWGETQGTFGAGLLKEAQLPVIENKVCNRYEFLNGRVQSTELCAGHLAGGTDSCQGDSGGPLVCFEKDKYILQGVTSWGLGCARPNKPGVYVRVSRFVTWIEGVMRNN

[5] = Cytotoxicity against mouse B16-4A5 cells assessed as cell viability at 10 uM after 70 hrs by WST-8 assay relative to control; format: cell-based; conditions: read-out: Activity
[6] = Inhibition of melanogenesis in theophylline-stimulated mouse B16-4A5 cells at 10 uM after 72 hrs by microplate reader analysis relative to control; format: functional; conditions: B16-4A5, 72 h
[7] = Inhibition of melanogenesis in theophylline-stimulated mouse B16-4A5 cells at 1 uM after 72 hrs by microplate reader analysis relative to control; format: functional; conditions: B16-4A5, 72 h
[8] = Cytotoxicity against mouse B16-4A5 cells assessed as cell viability at 30 uM after 70 hrs by WST-8 assay relative to control; format: cell-based; conditions: read-out: Activity
[9] = Cytotoxicity against mouse B16-4A5 cells assessed as cell viability at 100 uM after 70 hrs by WST-8 assay relative to control; format: cell-based; conditions: read-out: Activity
[10] = Inhibition of melanogenesis in theophylline-stimulated mouse B16-4A5 cells at 100 uM after 72 hrs by microplate reader analysis relative to control; format: functional; conditions: B16-4A5, 72 h
[11] = Inhibition of melanogenesis in theophylline-stimulated mouse B16-4A5 cells at 30 uM after 72 hrs by microplate reader analysis relative to control; format: functional; conditions: B16-4A5, 72 h
[12] = Downregulation of TRP-1 mRNA expression in theophylline-stimulated mouse B16-4A5 cells assessed as ratio of TRP-1 mRNA to beta-actin mRNA level at 10 uM after 72 hrs by qPCR analysis; format: functional, cell-based
[13] = Downregulation of TRP-1 mRNA expression in theophylline-stimulated mouse B16-4A5 cells assessed as ratio of TRP-1 mRNA to beta-actin mRNA level at 3 uM after 72 hrs by qPCR analysis; format: functional, cell-based
[14] = Downregulation of tyrosinase mRNA expression in theophylline-stimulated mouse B16-4A5 cells assessed as ratio of tyrosinase mRNA to beta-actin mRNA level at 10 uM after 72 hrs by qPCR analysis; format: functional, cell-based
[15] = Downregulation of tyrosinase mRNA expression in theophylline-stimulated mouse B16-4A5 cells assessed as ratio of tyrosinase mRNA to beta-actin mRNA level at 3 uM after 72 hrs by qPCR analysis; format: functional, cell-based
[16] = Downregulation of TRP-2 mRNA expression in theophylline-stimulated mouse B16-4A5 cells assessed as ratio of TRP-2 mRNA to beta-actin mRNA level at 3 uM after 72 hrs by qPCR analysis; format: functional, cell-based
[17] = Downregulation of tyrosinase mRNA expression in theophylline-stimulated mouse B16-4A5 cells assessed as ratio of tyrosinase mRNA to beta-actin mRNA level at 30 uM after 72 hrs by qPCR analysis; format: functional, cell-based
[18] = Downregulation of TRP-1 mRNA expression in theophylline-stimulated mouse B16-4A5 cells assessed as ratio of TRP-1 mRNA to beta-actin mRNA level at 30 uM after 72 hrs by qPCR analysis; format: functional, cell-based
[19] = Downregulation of TRP-2 mRNA expression in theophylline-stimulated mouse B16-4A5 cells assessed as ratio of TRP-2 mRNA to beta-actin mRNA level at 10 uM after 72 hrs by qPCR analysis; format: functional, cell-based
[20] = Downregulation of TRP-2 mRNA expression in theophylline-stimulated mouse B16-4A5 cells assessed as ratio of TRP-2 mRNA to beta-actin mRNA level at 30 uM after 72 hrs by qPCR analysis; format: functional, cell-based
[21] = target: T1, Tyrosinase (Agaricus bisporus) (UniProt O42713); test: Inhibition of mushroom tyrosinase using L-DOPA as substrate assessed as dopaquinone production at 100 uM after 5 mins by microplate reader analysis relative to control
T1 sequence (whole entry): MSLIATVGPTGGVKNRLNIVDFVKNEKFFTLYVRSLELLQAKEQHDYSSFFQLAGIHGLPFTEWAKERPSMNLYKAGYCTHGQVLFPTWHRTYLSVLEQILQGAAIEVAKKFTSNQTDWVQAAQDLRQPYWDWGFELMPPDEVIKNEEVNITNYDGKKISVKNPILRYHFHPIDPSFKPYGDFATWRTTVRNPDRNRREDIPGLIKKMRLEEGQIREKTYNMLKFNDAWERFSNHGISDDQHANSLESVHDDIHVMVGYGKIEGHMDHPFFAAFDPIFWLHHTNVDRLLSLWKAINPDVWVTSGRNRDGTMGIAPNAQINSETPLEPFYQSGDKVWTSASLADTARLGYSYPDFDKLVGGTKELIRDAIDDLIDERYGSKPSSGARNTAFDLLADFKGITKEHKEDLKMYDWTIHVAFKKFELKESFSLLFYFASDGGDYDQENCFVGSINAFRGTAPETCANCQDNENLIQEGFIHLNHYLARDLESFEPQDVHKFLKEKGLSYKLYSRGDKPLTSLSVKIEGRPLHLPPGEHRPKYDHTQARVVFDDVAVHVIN

COc1ccc(-c2oc3cc(O)cc(O)c3c(=O)c2O[C@@H]2O[C@H](CO)[C@@H](O)[C@H](O)[C@H]2O)cc1O
viability at 70 h, 3 µM [1]: 91.3%
viability at 70 h, 1 µM [2]: 93.4%
inhibition at 3 µM [3]: 3.3%
inhibition [4]: 33.1%
viability at 70 h, 10 µM [5]: 86.2%
inhibition at 10 µM [6]: -10.7%
inhibition at 1 µM [7]: 7.7%

COc1ccc(-c2cc(=O)c3c(O)cc(O)cc3o2)cc1O[C@@H]1O[C@H](CO)[C@@H](O)[C@H](O)[C@H]1O
viability at 70 h, 3 µM [1]: 91.4%
viability at 70 h, 30 µM [8]: 79.4%
viability at 70 h, 1 µM [2]: 92.8%
viability at 70 h, 100 µM [9]: 66.2%
inhibition at 100 µM [10]: 61.5%
inhibition at 30 µM [11]: 44.1%
Ratio [12]: 1.08
Ratio [13]: 0.85
Ratio [14]: 0.99
inhibition at 3 µM [3]: 18%
inhibition [4]: 28.5%
Ratio [15]: 1.22
viability at 70 h, 10 µM [5]: 94.5%
inhibition at 10 µM [6]: 40.6%
Ratio [16]: 1.08
inhibition at 1 µM [7]: 6.3%
Ratio [17]: 1.09
Ratio [18]: 0.77
Ratio [19]: 0.92
Ratio [20]: 0.93

O=c1cc(-c2ccc(O[C@@H]3O[C@H](CO)[C@@H](O)[C@H](O)[C@H]3O)c(O)c2)oc2cc(O)cc(O)c12
viability at 70 h, 3 µM [1]: 105%
viability at 70 h, 1 µM [2]: 99.6%
inhibition [21]: 4.4%
inhibition at 3 µM [3]: 31%
inhibition [4]: 41.7%
viability at 70 h, 10 µM [5]: 114%
inhibition at 10 µM [6]: 38.6%
inhibition at 1 µM [7]: 27.7%

NC[C@H]1CC[C@H](C(=O)O)CC1
inhibition [4]: 9.5%

O=C1CC(c2ccc(O)c(O)c2)Oc2cc(O)cc(O)c21 (racemic)
viability at 70 h, 3 µM [1]: 101%
viability at 70 h, 30 µM [8]: 72.6%
viability at 70 h, 1 µM [2]: 108%
viability at 70 h, 100 µM [9]: 55.9%
inhibition at 100 µM [10]: 61.1%
inhibition [21]: 3.1%
inhibition at 30 µM [11]: 42.5%
Ratio [12]: 0.36
Ratio [13]: 0.94
Ratio [14]: 0.66
inhibition at 3 µM [3]: 10.3%
inhibition [4]: 20.7%
Ratio [15]: 0.97
viability at 70 h, 10 µM [5]: 88.2%
inhibition at 10 µM [6]: 37.2%
Ratio [16]: 0.67
inhibition at 1 µM [7]: 5.8%
Ratio [17]: 0.38
Ratio [18]: 0.29
Ratio [19]: 0.55
Ratio [20]: 0.43

O=c1cc(-c2ccc(O)c(O)c2)oc2cc(O[C@@H]3O[C@H](CO)[C@@H](O)[C@H](O)[C@H]3O)cc(O)c12 [GALUTEOLIN]
viability at 70 h, 3 µM [1]: 104%
viability at 70 h, 30 µM [8]: 85.5%
viability at 70 h, 1 µM [2]: 101%
viability at 70 h, 100 µM [9]: 57.6%
inhibition at 100 µM [10]: 15.1%
inhibition at 30 µM [11]: 11%
inhibition at 3 µM [3]: 14%
inhibition [4]: 61%
viability at 70 h, 10 µM [5]: 103%
inhibition at 10 µM [6]: 45.1%
inhibition at 1 µM [7]: 14.8%

O=c1c(O[C@@H]2O[C@H](CO)[C@@H](O)[C@H](O)[C@H]2O)c(-c2ccc(O)c(O)c2)oc2cc(O)cc(O)c12 [ISOQUERCETIN]
viability at 70 h, 3 µM [1]: 100%
viability at 70 h, 30 µM [8]: 87%
viability at 70 h, 1 µM [2]: 99.8%
viability at 70 h, 100 µM [9]: 76.3%
inhibition at 100 µM [10]: 20.7%
inhibition [21]: 5%
inhibition at 30 µM [11]: 23.2%
inhibition at 3 µM [3]: 33.2%
inhibition [4]: -2.5%
viability at 70 h, 10 µM [5]: 95.4%
inhibition at 10 µM [6]: 20.7%
inhibition at 1 µM [7]: 16.7%

O=c1cc(-c2ccc(O)c(O)c2)oc2cc(O)cc(O)c12 [LUTEOLIN]
viability at 70 h, 3 µM [1]: 102%
viability at 70 h, 30 µM [8]: 63.8%
viability at 70 h, 1 µM [2]: 103%
viability at 70 h, 100 µM [9]: 12.6%
inhibition [21]: 33.5%
inhibition at 30 µM [11]: 76.7%
Ratio [12]: 0.86
Ratio [13]: 0.93
Ratio [14]: 0.74
inhibition at 3 µM [3]: 13.5%
inhibition [4]: 28.7%
Ratio [15]: 0.72
viability at 70 h, 10 µM [5]: 77.2%
inhibition at 10 µM [6]: 38.1%
Ratio [16]: 0.9
inhibition at 1 µM [7]: 6.2%
Ratio [17]: 0.46
Ratio [18]: 0.83
Ratio [19]: 0.89
Ratio [20]: 0.82

O=c1c(O)c(-c2ccc(O)c(O)c2)oc2cc(O)cc(O)c12 [QUERCETIN]
viability at 70 h, 3 µM [1]: 103%
viability at 70 h, 30 µM [8]: 89.1%
viability at 70 h, 1 µM [2]: 104%
inhibition at 30 µM [11]: 72.5%
Ratio [12]: 0.68
Ratio [13]: 0.68
Ratio [14]: 0.55
inhibition at 3 µM [3]: 17.1%
inhibition [4]: 30.2%
Ratio [15]: 0.56
viability at 70 h, 10 µM [5]: 106%
inhibition at 10 µM [6]: 34.3%
Ratio [16]: 0.81
inhibition at 1 µM [7]: 13.9%
Ratio [17]: 0.45
Ratio [18]: 0.7
Ratio [19]: 0.72
Ratio [20]: 0.59

O=c1c(O)c(-c2ccc(O[C@@H]3O[C@H](CO)[C@@H](O)[C@H](O)[C@H]3O)c(O)c2)oc2cc(O)cc(O)c12 [SPIRAEOSIDE]
viability at 70 h, 3 µM [1]: 107%
viability at 70 h, 30 µM [8]: 95.8%
viability at 70 h, 1 µM [2]: 105%
viability at 70 h, 100 µM [9]: 74%
inhibition at 100 µM [10]: 21.4%
inhibition [21]: 70.7%
inhibition at 30 µM [11]: 34.7%
inhibition at 3 µM [3]: 24.4%
inhibition [4]: 51%
viability at 70 h, 10 µM [5]: 106%
inhibition at 10 µM [6]: 31.4%
inhibition at 1 µM [7]: 22.4%

COc1ccc(-c2cc(=O)c3c(O)cc(O[C@@H]4O[C@H](CO)[C@@H](O)[C@H](O)[C@H]4O)cc3o2)cc1 [TILIANINE]
viability at 70 h, 3 µM [1]: 98.3%
viability at 70 h, 1 µM [2]: 93.2%
inhibition [21]: 5.3%
inhibition at 3 µM [3]: -1.1%
inhibition [4]: -8.1%
viability at 70 h, 10 µM [5]: 74.2%
inhibition at 10 µM [6]: -36.6%
inhibition at 1 µM [7]: -5.9%
